Experimental data from patent publication US20120121680A1, “ANIMAL REPELLING DEICER” (NORTH AMERICAN SALT COMPANY, priority 2010, published 2012).

System: whitetail deer
Test: Free-choice consumption of repellent-adulterated salt by salt-deprived deer
Assay type: in vivo
Details: mean per 48-hour provision, dry matter basis
Method: The products evaluated were three classes of commercially available, non-lethal repellents. Products that repel deer based on taste modification, chemical irritation and fear were evaluated. One gram of water was used to blend the dry repellents with loose salt in a V-mixer (tumble mixer). Liquid repellents were added directly to salt and blended using the V-mixer. After blending, the adulterated salt was weighed into labeled, channel-lock bags, sealed, and stored for eventual delivery to the test farm.
Testing was carried out at the farm of a whitetail deer farmer located in Indiana. The testing was carried out by both the farmer and a veterinarian. Approximately twelve deer that ranged in age from 1.5 to 3 years were used in the study. The deer appeared to be healthy at the beginning of the study and maintained satisfactory health during the completion of the study. Signs consistent with clinical disease were not observed, and medical treatments were not administered to any of the deer. The deer were divided into two groups and housed in two separate grass paddocks. Each paddock housed approximately six deer. The size of the paddocks was about 250 ft.×100 ft.
The deer used in the study were fed a diet that was devoid of supplemental salt. Feed was provided in plastic feeders on the ground and inside a wooden, three-sided feeding station that was constructed by the farm owner. Feeding stations were present in both paddocks. Salt was provided free-choice in shallow, black rubber pans, and the pans were housed in a raised, wooden trough that was mounted on the wall of the feeding station. Water was provided to the deer in round plastic containers located within the paddocks. Water and feed were provided to the deer by the farm owner.
Prior to initiation of the study, the salt-free diet and free-choice, unadulterated salt were provided to the deer for a period of one-week to permit acclimation to the feeding regimen. After initiation of the study, access to salt was restricted in an attempt to impose a state of salt deprivation in the deer. Free-choice, unadulterated salt was removed, and the deer were fed the diet deficient in salt for a period of 48 hours to induce salt deprivation. After 48 hours, free-choice salt containing the different repellents was provided. After 48 hours, salt containing the repellents was removed, and another 48-hour period of salt deprivation was imposed followed by provision of adulterated salt for another 48-hour period. The regimen of 48 hours of adulterated salt provision, 48 hours of salt deprivation was used throughout the study and constituted an experimental replication. A total of eight replications were completed for the chemical irritation and fear class of repellents. A total of seven replications were completed for the taste class of repellents.
The pans containing adulterated salt were randomly arranged in the raised, wooden trough on each replication to prevent the deer from becoming habituated to the placement of repellents in a particular position in the trough. A one-week period of access to unadulterated salt was permitted after the final replication of the respective classes of repellents was completed. The experimental period for each class of repellents varied between 28 and 32 days.
Absolute dry matter of unadulterated salt was determined by drying 1 gram samples in a 212° F. (100° C.) oven for a period of 24 hours. Dry matter of unadulterated salt was determined to be 99.8%. After collection of adulterated and unadulterated salt from the feeding stations, the salt was transferred to aluminum pans and dried in a 131° F. (55° C.) oven for 48 hours to determine physiologic dry matter.
Salt consumption was determined by calculating the difference between salt provided and salt collected after 48 hours. The data was converted to, and expressed on, a dry matter basis.
Consumption data for the two paddocks was merged for analysis. […]

[1] = taste repellents in free salt at Table 1 inclusion rates, seven replications

Compound: Acid casein
- Consumed [1]: 8.21 g

Compound: [Cl-].[Li+] [Lithium Chloride, Lithium chloride]
- Consumed (chemical irritation repellent, 0.38% by weight in salt, eight replications): 7.06 g

Compound: Sodium caseinate
- Consumed [1]: 7.62 g

Compound: CC[N+](CC)(CC(=O)Nc1c(C)cccc1C)Cc1ccccc1 [Bitrex, Denatonium benzoate]
- Consumed [1]: 8.29 g

Compound: COc1cc(CNC(=O)CCCC/C=C/C(C)C)ccc1O [Capsaicin]
- Consumed (chemical irritation repellent, 0.007% by weight in salt, eight replications): 8.81 g
- Consumed (chemical irritation repellent, 0.07% by weight in salt, eight replications): 9.38 g

Compound: Rennet casein
- Consumed [1]: 10.43 g
